# Measurements reported in patent publication US10399971B2, “Compound for treating or preventing hyperuricemia or gout” (JIANGSU ATOM BIOSCIENCE AND PHARMACEUTICAL CO., LTD., priority 2015, dated 2019).
# What was measured:
# hURAT1 = target: T1, hURAT1 (Homo sapiens, UniProt Q96S37); test: Inhibition assay of uric acid transport in HEK293-hURAT1 transfection cell line; format: cell-based; conditions: read-out: Inhibitory rates of uric acid transport, ±SD (%)
# T1 sequence (Q96S37 1-553): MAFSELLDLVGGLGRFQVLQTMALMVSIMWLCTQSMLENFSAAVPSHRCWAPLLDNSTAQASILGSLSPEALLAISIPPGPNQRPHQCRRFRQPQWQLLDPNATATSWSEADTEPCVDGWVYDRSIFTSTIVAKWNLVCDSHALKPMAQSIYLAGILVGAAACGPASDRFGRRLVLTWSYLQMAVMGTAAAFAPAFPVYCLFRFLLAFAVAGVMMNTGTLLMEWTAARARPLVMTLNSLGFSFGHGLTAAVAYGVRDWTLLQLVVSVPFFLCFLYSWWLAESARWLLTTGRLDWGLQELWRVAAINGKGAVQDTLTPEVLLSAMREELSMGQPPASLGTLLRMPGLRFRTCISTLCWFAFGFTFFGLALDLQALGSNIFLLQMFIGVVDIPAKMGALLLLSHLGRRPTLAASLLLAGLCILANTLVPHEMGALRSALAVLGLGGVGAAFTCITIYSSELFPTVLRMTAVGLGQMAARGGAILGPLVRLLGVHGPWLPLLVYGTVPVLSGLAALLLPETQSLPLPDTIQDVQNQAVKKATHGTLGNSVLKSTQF
# Procedure: 2.1 Construction of a HEK293 stable cell line with high expression of hURAT1: The plasmid pCMV6-hURAT1 was transfected into HEK293 cells, then the stable strain was obtained by the G418 (final concentration 500 μg/mL) resistance screening, which is the high expression of hURAT1 transporter membrane protein.
# 2.2 To a coated 24-well plate was added 200 μL of 0.1 mg/mL poly-lysine per well and the plate was left overnight. Poly-lysine was removed from wells. The wells were cleaned thoroughly with aseptic water and dried for use.
# 2.3 To the above coated 24 well plate was added HEK293-hURAT1 stable cells (2×10^5 cells per well). The cells was cultured at 37° C. under 5% CO2 for 3 days.
# The solution was fully mixed to give HBSS buffer (pH value: 7.4). The buffer was stored at −20° C.
# 2.5 The HBSS buffer was warmed to 37° C. in a water bath. Washed cells with HBSS twice, added 160 μL of HBSS and 20 μL test compound per well. The final concentration of tested compound per well is 500 nM. The blank control well contains only 180 μL of HBSS without tested compound. The plate was placed at room temperature for 30 min.
# 2.6 To each well was added 20 μL of 50 μM ^14C-Uric acid. The plate was placed at room temperature for 20 min.
# 2.7 The solution in each well was removed and the cells in each well were washed with pre-cooled HBSS buffer. To each well was added 0.2 M NaOH to dissolve the cells. The solution containing cell fragments was collected and the right amount of scintillation liquid was added.
# The formula for calculating the inhibitory rate of uric acid transport for compounds was shown as below: […]
# [1] = tested on: human normal liver cell line L-02; test: Cytotoxicity test on human normal liver cell line L-02 (Alamar Blue); format: cell-based; conditions: L02, L-02 cells, 120 h incubation, cell viability, read-out: half inhibitory concentration (IC50) against L-02
# Procedure: (§1) 2.1 The normal liver cell lines L-02 and WRL-68 were cultured with DMEM culture medium (containing 10% of fetal bovine serum, 100 U/mL of penicillin and 0.1 mg/mL of streptomycin) in an incubator under 5% CO2 at 37° C. until the cell density was about 90%, respectively.
# (§2) 2.3 Tested compounds and benzbromarone at different concentration gradients were prepared by using the DMEM culture medium and added into wells at 100 μL/well as compounds wells. The DMEM culture medium was added into wells at 100 μL/well without tested compound as negative control wells.
# (§3) This 10× Alamar Blue solution was diluted into 1× Alamar Blue solution with phenol red free DMEM culture medium before use.
# (§4) 2.5 The cells were washed with PBS (0.1 M, pH=7.4) twice. The Alamar Blue solution was added into wells at 100 μL/well. 100 μL of Alamar Blue solution was added into wells without cells to serve as blank control wells. The 96-well plate was placed in an incubator under 5% CO2 at 37° C. for 3 h. Each concentration of compound was repeated three times during the test.
# (§5) The fluorescence value of the cells containing compound is the F(test compound); the fluorescence value of the cells without compound as blank control is the F(blank control); the fluorescent value of the cells from negative control group is F(negative control). The average value and standard deviation of cell viability of three repeated concentrations was calculated by the following formula: […]
# (§6) 2.7 The half inhibitory concentration (IC50) of the compound for the cells L-02 and WRL-68 was obtained from the cell viability by Prism Graph software.
# [2] = tested on: human normal liver cell line WRL-68; test: Cytotoxicity test on human normal liver cell line WRL-68 (Alamar Blue); format: cell-based; conditions: WRL68, WRL-68 cells, 120 h incubation, cell viability, read-out: half inhibitory concentration (IC50) against WRL-68
# Procedure: as §1, §2, §3, §4, §5, §6
# hyperuricemia mice = test: Uric acid excretion test in hyperuricemia mice; format: in vivo, Kunming mice; conditions: 15 mg/kg oral
# Procedure: Species: Kingming mice (Clean Level); body weights: 25 to 30 g; ages: 4 to 5 weeks; sex: male. These mice were purchased from Shanghai SLAC Laboratory Animal Co., Ltd. Certificate No.: SCXK (HU) 2012-2002. Animal quality certificate number: 2015000522173.
# A certain amount of adenine and yeast extract powder was weighted and a certain amount of double distilled water was added. The mixture was stirred at about 60° C. for 40 min to give a suspension, which the concentration of yeast extract is 0.6 g/mL and the concentration of adenine is 12 mg/mL.
# A suspension of 20 mg/mL potassium oxonate was prepared by mixing a certain amount of potassium oxonate with 0.5% CMC-Na solution before use.
# Male Kunming mice were randomly divided into four groups: blank control group, model group, compound 74 group, and benzbromarone group. Each group has six mice. All mice fasted 2 to 3 h before use. The model group, benzbromarone group, and compound 74 group were orally given a suspension of yeast extract and adenine prepared above to reach the final dosage of 10 g/kg (body weight) of yeast extract and 200 mg/kg (body weight) of adenine, respectively. The blank control group was only given same volume of normal saline orally. After 2.5 h, all mice in compound 74 group and benzbromarone group were given 10 mL/kg of suspension of compound 74 (1.5 mg/mL) and 10 mL/kg of suspension of benzbromarone (1.5 mg/mL), respectively. The blank control group and model group were orally given same volume of 0.5% CMC-Na solution. All animals were treated in the same way for seven days by using administration methods described above. On the last day, after administration of a suspension of yeast extract and adenine for the model group, compound 74 group, and benzbromarone group, all mice in these three groups were given 12.5 mL/kg of potassium oxonate (20 mg/mL) by i.p. The blank control was only given same volume of 0.5% CMC-Na solution by i.p. After 30 min, compound 74 and benzbromarone were administrated orally to the mice at same dosages as above in compound 74 group and benzbromarone group, respectively. The blank control group and model group were orally given same volume of 0.5% CMC-Na solution.
# Collection of urine samples: All mice were placed in metabolic cages with normal diet individually after giving test compounds on the last day. 24 h urine was collected and the urine volume was measured. The urine was centrifugated at 3000 rpm for 20 min and the supernatant was collected.
# Detection of the concentration of uric acid of mice urine samples: uric acid concentration in samples was detected by using uric acid assay kit (phosphotungstic acid method) followed the procedures described in the instruction.
# in vivo = conditions: both, SD, rat, po
# Text: (§7) Rats were randomly divided into group A1, group B1 and blank control group. Each group has 10 of rats with half male and half female.
# [3] = Acute toxicity of single oral dose in SD rats
# Text: as §7
compound,measurement,setting,value
"CCc1oc2ccccc2c1C(=O)c1cc(Br)c(O)c(Br)c1 [BBR, (3,5-dibromo-4-hydroxyphenyl)(2-ethyl-benzofuran-3-yl)methanone, reference compound]",inhibition at 0.5 µM,hURAT1,55.6 ± 1.42%
same,IC50,[1],40.2 µM
same,IC50,[2],45.5 µM
same,uric acid excretion increased compared with the model group,hyperuricemia mice; increase over model group,about 25.35%
same,"Changes of uric acid excretion (compared with model group, %)",hyperuricemia mice; model group set to 100%,125.35%
same,"Uric acid in urine for 24 h, ±SD","hyperuricemia mice; seven days, 6 mice",13.40 ± 1.59 mmol
same,MTD at 14 days,in vivo,140 mg/kg
same,Death rate,"[3]; SD rats, single oral dose, 74 at 5.0 g/kg, BBR at 0.14 g/kg, 10 rats per group, 14 days observation",0/10
same,death of rats in pre-experiment of acute toxicity,"[3]; pre-experiment, compound 74 at 5 g/kg (highest dose), benzbromarone at 0.14 g/kg",no death of rats was found
